Experimental data: ChEMBL document CHEMBL1151667, “Chlorochimaphilin: a new antibiotic from Moneses uniflora” (1996)
In brackets after ≈: the same amount, converted by molar mass. Activity calls are given as the source filed them. The calls are words filed in the database; no cut-off is given here.

Legend:
[1] = tested on: Pseudomonas aeruginosa; assay: Antimicrobial activity against Pseudomonas aeruginosa Z61 at <=800 ug/ml after 24 hrs by twofold serial microbroth dilution assay; format: functional, organism-based
[2] = tested on: Staphylococcus aureus; assay: Antimicrobial activity against Staphylococcus aureus SAP00017 at <=800 ug/ml after 24 hrs by twofold serial microbroth dilution assay; format: functional, organism-based
[3] = tested on: Escherichia coli; assay: Antimicrobial activity against Escherichia coli DC2 at <=800 ug/ml after 24 hrs by twofold serial microbroth dilution assay; format: functional, organism-based
[4] = tested on: Escherichia coli; assay: Antimicrobial activity against Escherichia coli UB1005 at <=800 ug/ml after 24 hrs by twofold serial microbroth dilution assay; format: functional, organism-based
[5] = tested on: Pseudomonas aeruginosa; assay: Antimicrobial activity against Pseudomonas aeruginosa K799 at <=800 ug/ml after 24 hrs by twofold serial microbroth dilution assay; format: functional, organism-based
[6] = tested on: Bacillus subtilis; assay: Antimicrobial activity against Bacillus subtilis Vernon at <=800 ug/ml after 24 hrs by twofold serial microbroth dilution assay; format: functional, organism-based
[7] = tested on: Staphylococcus aureus; assay: Antimicrobial activity against Staphylococcus aureus RN4220 at <=800 ug/ml after 24 hrs by twofold serial microbroth dilution assay; format: functional, organism-based
[8] = tested on: Candida albicans; assay: Antimicrobial activity against Candida albicans CAND105 at <=800 ug/ml after 48 hrs by twofold serial microbroth dilution assay; format: functional, organism-based
[9] = tested on: Pseudomonas aeruginosa; assay: Antimicrobial activity against Pseudomonas aeruginosa Z61 after 24 hrs by twofold serial microbroth dilution assay; format: functional
[10] = tested on: Pseudomonas aeruginosa; assay: Antimicrobial activity against Pseudomonas aeruginosa K799 after 24 hrs by twofold serial microbroth dilution assay; format: functional
[11] = tested on: Bacillus subtilis; assay: Antimicrobial activity against Bacillus subtilis Vernon after 24 hrs by twofold serial microbroth dilution assay; format: functional
[12] = tested on: Escherichia coli; assay: Antimicrobial activity against Escherichia coli DC2 after 24 hrs by twofold serial microbroth dilution assay; format: functional
[13] = tested on: Candida albicans; assay: Antimicrobial activity against Candida albicans CAND105 after 48 hrs by twofold serial microbroth dilution assay; format: functional
[14] = tested on: Staphylococcus aureus; assay: Antimicrobial activity against Staphylococcus aureus RN4220 after 24 hrs by twofold serial microbroth dilution assay; format: functional
[15] = tested on: Staphylococcus aureus; assay: Antimicrobial activity against Staphylococcus aureus SAP00017 after 24 hrs by twofold serial microbroth dilution assay; format: functional
[16] = tested on: Escherichia coli; assay: Antimicrobial activity against Escherichia coli UB1005 after 24 hrs by twofold serial microbroth dilution assay; conditions: UB1005, 24 h
[17] = tested on: Aspergillus fumigatus; assay: Antimicrobial activity against Aspergillus fumigatus after 48 hrs by twofold serial microbroth dilution assay; format: functional
[18] = tested on: Human alphaherpesvirus 1; assay: Antiviral activity against Herpes simplex virus 1 assessed as effect on virus-induced cytopathic effect at 200 ug/ml after 3 days; format: functional, organism-based
[19] = tested on: Yarrowia lipolytica; assay: Antimicrobial activity against Candida lipolytica after 48 hrs by twofold serial microbroth dilution assay; format: functional
[20] = tested on: Saccharomyces cerevisiae; assay: Antimicrobial activity against Saccharomyces cerevisiae after 48 hrs by twofold serial microbroth dilution assay; format: functional
[21] = tested on: Candida albicans; assay: Antimicrobial activity against Candida albicans after 48 hrs by twofold serial microbroth dilution assay; format: functional
[22] = tested on: Mycobacterium avium; assay: Antimicrobial activity against Mycobacterium avium 724 ATCC 25291 at 100 ug/disk after 2 weeks by disk diffusion method; format: functional, organism-based
[23] = tested on: Respiratory syncytial virus; assay: Antiviral activity against Respiratory syncytial virus assessed as effect on virus-induced cytopathic effect at 200 ug/ml after 3 days; format: functional, organism-based
[24] = tested on: Mycobacterium tuberculosis; assay: Antimicrobial activity against Mycobacterium tuberculosis 107 ATCC 35801 at 100 ug/disk after 4 weeks by disk diffusion method; format: functional, organism-based
[25] = tested on: Fusarium tricinctum; assay: Antimicrobial activity against Fusarium tricinctum after 48 hrs by twofold serial microbroth dilution assay; format: functional
[26] = tested on: Nannizzia gypsea; assay: Antimicrobial activity against Microsporum gypseum after 48 hrs by twofold serial microbroth dilution assay; format: functional
[27] = tested on: Aspergillus flavus; assay: Antimicrobial activity against Aspergillus flavus after 48 hrs by twofold serial microbroth dilution assay; format: functional

Compound: COc1ccc2c(OC(C)=O)cc(OC)c(OC(C)=O)c2c1OC(C)=O
- Activity [1]: inactive
- Activity [2]: inactive
- Activity [3]: inactive
- Activity [4]: inactive
- Activity [5]: inactive
- Activity [6]: inactive
- Activity [7]: inactive
- Activity [8]: inactive

Compound: Cc1ccc2c(O[C@@H]3O[C@@H](C)[C@H](O)[C@@H](O)[C@H]3O)c(O)c(C)c(O)c2c1
- Activity [1]: inactive
- Activity [2]: inactive
- Activity [3]: inactive
- Activity [4]: inactive
- Activity [5]: inactive
- Activity [6]: inactive
- Activity [7]: inactive
- Activity [8]: inactive

Compound: GENTAMICIN
- MIC [9]: 0.3 µg/mL
- MIC [10]: 1 µg/mL
- MIC [11]: 16 µg/mL
- MIC [12]: 1 µg/mL
- MIC [13]: > 32 µg/mL
- MIC [14]: 0.3 µg/mL
- MIC [15]: > 32 µg/mL

Compound: CC(=O)Oc1c(C)c(OC(C)=O)c2cc(C)ccc2c1O[C@@H]1O[C@@H](C)[C@H](OC(C)=O)[C@@H](OC(C)=O)[C@H]1OC(C)=O
- Activity [1]: inactive
- Activity [2]: inactive
- Activity [3]: inactive
- Activity [4]: inactive
- Activity [5]: inactive
- Activity [6]: inactive
- Activity [7]: inactive
- Activity [8]: inactive

Compound: COc1cccc(OC)c1C(=O)N[C@@H]1C(=O)N2[C@@H]1SC(C)(C)[C@@H]2C(=O)O [METHICILLIN]
- MIC [16]: > 512 µg/mL
- MIC [9]: < 4 µg/mL
- MIC [10]: 256 µg/mL (≈ 673 µM)
- MIC [11]: 128 µg/mL (≈ 336 µM)
- MIC [12]: < 4 µg/mL
- MIC [13]: > 512 µg/mL
- MIC ([14]; RN4220, 24 h): < 4 µg/mL
- MIC [15]: 256 µg/mL (≈ 673 µM)

Compound: CC1=CC(=O)c2ccc(C)c(Cl)c2C1=O
- MIC [17]: 25 µg/mL (≈ 113 µM)
- Activity [18]: inactive
- MIC [19]: 50 µg/mL (≈ 227 µM)
- MIC [16]: > 800 µg/mL
- MIC [9]: 400 µg/mL (≈ 1810 µM)
- MIC [20]: 100 µg/mL (≈ 453 µM)
- MIC [21]: 100 µg/mL (≈ 453 µM)
- MIC [10]: > 800 µg/mL
- Activity [22]: inactive
- MIC [11]: 12.5 µg/mL (≈ 56.6 µM)
- MIC [12]: 800 µg/mL (≈ 3630 µM)
- MIC [13]: 50 µg/mL (≈ 227 µM)
- Activity [23]: inactive
- Activity [24]: inactive
- MIC [25]: 12.5 µg/mL (≈ 56.6 µM)
- MIC [26]: 3.1 µg/mL (≈ 14 µM)
- MIC ([14]; RN4220, 24 h): 200 µg/mL (≈ 906 µM)
- MIC [27]: 25 µg/mL (≈ 113 µM)
- MIC [15]: 25 µg/mL (≈ 113 µM)

Compound: CC1=C(O)C(=O)c2ccc(C)cc2C1=O
- MIC [17]: 50 µg/mL (≈ 247 µM)
- Activity [18]: inactive
- MIC [19]: 25 µg/mL (≈ 124 µM)
- MIC [16]: > 800 µg/mL
- MIC [9]: > 800 µg/mL
- MIC [20]: > 100 µg/mL
- MIC [21]: 50 µg/mL (≈ 247 µM)
- MIC [10]: > 800 µg/mL
- Activity [22]: inactive
- MIC [11]: 800 µg/mL (≈ 3960 µM)
- MIC [12]: > 800 µg/mL
- MIC [13]: 80 µg/mL (≈ 396 µM)
- Activity [23]: inactive
- Activity [24]: inactive
- MIC [25]: 25 µg/mL (≈ 124 µM)
- MIC [26]: 12.5 µg/mL (≈ 61.8 µM)
- MIC ([14]; RN4220, 24 h): 400 µg/mL (≈ 1980 µM)
- MIC [27]: 100 µg/mL (≈ 495 µM)
- MIC [15]: 800 µg/mL (≈ 3960 µM)

Compound: C[C@@H]1[C@H](O)[C@@H](C)/C=C/C=C/C=C/C=C/C=C/C=C/C=C/[C@H](O[C@@H]2O[C@H](C)[C@@H](O)[C@H](N)[C@@H]2O)C[C@@H]2O[C@](O)(C[C@@H](O)C[C@@H](O)[C@H](O)CC[C@@H](O)C[C@@H](O)CC(=O)O[C@H]1C)C[C@H](O)[C@H]2C(=O)O [AMPHOTERICIN B]
- MIC [16]: > 5 µg/mL
- MIC [9]: > 5 µg/mL
- MIC [10]: > 5 µg/mL
- MIC [11]: > 5 µg/mL
- MIC [12]: > 5 µg/mL
- MIC [13]: 0.1 µg/mL (≈ 0.108 µM)
- MIC ([14]; RN4220, 24 h): > 5 µg/mL
- MIC [15]: > 5 µg/mL

Compound: COc1ccc2c(O)cc(OC)c(O)c2c1O
- Activity [1]: inactive
- Activity [2]: inactive
- Activity [3]: inactive
- Activity [4]: inactive
- Activity [5]: inactive
- Activity [6]: inactive
- Activity [7]: inactive
- Activity [8]: inactive

Compound: CC1=CC(=O)c2ccc(C)cc2C1=O [CHIMAPHILIN]
- MIC [17]: 50 µg/mL (≈ 269 µM)
- Activity [18]: inactive
- MIC [19]: 50 µg/mL (≈ 269 µM)
- MIC [16]: > 800 µg/mL
- MIC [9]: > 800 µg/mL
- MIC [20]: 50 µg/mL (≈ 269 µM)
- MIC [21]: 50 µg/mL (≈ 269 µM)
- MIC [10]: > 800 µg/mL
- Activity [22]: inactive
- MIC [11]: 50 µg/mL (≈ 269 µM)
- MIC [12]: > 800 µg/mL
- MIC [13]: 400 µg/mL (≈ 2150 µM)
- Activity [23]: inactive
- Activity [24]: inactive
- MIC [25]: 12.5 µg/mL (≈ 67.1 µM)
- MIC [26]: 6.2 µg/mL (≈ 33.3 µM)
- MIC ([14]; RN4220, 24 h): 25 µg/mL (≈ 134 µM)
- MIC [27]: 25 µg/mL (≈ 134 µM)
- MIC [15]: 25 µg/mL (≈ 134 µM)

Compound: NYSTATIN
- MIC [17]: 5 µg/mL
- MIC [19]: > 10 µg/mL
- MIC [20]: 10 µg/mL
- MIC [21]: 10 µg/mL
- MIC [25]: 5 µg/mL
- MIC [26]: 2.5 µg/mL
- MIC [27]: > 10 µg/mL
